Values after ≈ are worked out from the molar mass of the structure shown. Where two headings read alike, the source gives them in different places.
Assay: Fulvestrant aqueous solubility in the presence and absence of cyclodextrins (excess drug, shaken 24 h, filtered, HPLC)
Format: physicochemical
Conditions: for Quantity of Fulvestrant Diluted Run 2 / Average Concentration / Quantity of Fulvestrant Diluted Run 1: diluted sample; for solubility at 24 h: 22 °C
Protocol: The HPLC system used for the chromatographic determination of fulvestrant consisted of a Waters 600E quaternary gradient pump, a Waters 717plus WISP auto-sampler and a Waters 2487 Dual A, Absorbance detector. Separation was performed using a Phenomenex Luna C18 column (250×4.6 mm; 5 urn) (Phenomenex, Torrance, Calif.) (supplied by Separations, South Africa) and a mobile phase consisting of 50% MeCN:22.5% ddH2O :27.5% MeOH. The mobile phase was degassed and filtered prior to use. […] Sample run times were 15 minutes. The UV detector wavelength was set to 280 nm.
(§1) 1 mL of each of the following aqueous solutions was prepared containing 0; 25; 50; 75 and 100 mg/mL ACD in ddHiO. Excess fulvestrant was added to each of these solutions and the samples were shaken for 24 hours on an orbital shaker at 200 rpm and at 22° C. room temperature. Excess fulvestrant was present in all samples at all times. After 24-hours, the samples were filtered through 0.45 μm syringe tip filters, diluted according to requirements and assayed by HPLC.
as §1, with “5; 7.5; 10” for “25; 50; 75”, “15” for “100”, “BCD” for “ACD”, “ddH2O.” for “ddHiO.”
as §1, with “0;” for “0; 25;”, “100; 150; 200; 250; 300; 350” for “75”, “400” for “100”, “MBCD” for “ACD”, “ddH2O.” for “ddHiO.”
as §1, with “0;” for “0; 25;”, “100; 150; 200; 250; 300; 350” for “75”, “400” for “100”, “HPBCD” for “ACD”, “ddH2O.” for “ddHiO.”
as §1, with “0;” for “0; 25;”, “100; 150; 200; 250; 300; 350” for “75”, “400” for “100”, “SBEBCD” for “ACD”, “ddH2O.” for “ddHiO.”
as §1, with “0;” for “0; 25;”, “100; 150;” for “75”, “200” for “100”, “GCD” for “ACD”, “ddHO.” for “ddHiO.”
as §1, with “0;” for “0; 25;”, “100; 150; 200; 250; 300; 350” for “75”, “400” for “100”, “HPGCD” for “ACD”, “ddH2O.” for “ddHiO.”

- Quantity of Fulvestrant Diluted Run 2 (150 mg/mL HPBCD): 93.50 µg/mL
- True Fulvestrant Concentration (150 mg/mL HPGCD in ddH2O, 22° C., 24 h): 0.203 mg/mL
- Average Concentration (150 mg/mL HPGCD): 220.81 µg/mL
- Quantity of Fulvestrant Diluted Run 1 (150 mg/mL HPGCD): 220.67 µg/mL
- Quantity of Fulvestrant Diluted Run 2 (150 mg/mL HPGCD): 220.94 µg/mL
- True Fulvestrant Concentration (150 mg/mL MBCD in ddH2O, 22° C., 24 h): 6.744 mg/mL
- Average Concentration (150 mg/mL MBCD): 67.44 µg/mL
- Quantity of Fulvestrant Diluted Run 1 (150 mg/mL MBCD): 67.40 µg/mL
- Quantity of Fulvestrant Diluted Run 2 (150 mg/mL MBCD): 67.47 µg/mL
- True Fulvestrant Concentration (150 mg/mL SBEBCD in ddH2O, 22° C., 24 h): 0.273 mg/mL
- Average Concentration (150 mg/mL SBEBCD): 272.92 µg/mL
- Quantity of Fulvestrant Diluted Run 1 (150 mg/mL SBEBCD): 273.01 µg/mL
- Quantity of Fulvestrant Diluted Run 2 (150 mg/mL SBEBCD): 272.83 µg/mL
- True Fulvestrant Concentration (200 mg/mL GCD in ddH2O, 22° C., 24 h): <0.010 mg/mL
- Average Concentration (200 mg/mL GCD): <10.00 µg/mL
- Quantity of Fulvestrant Diluted Run 1 (200 mg/mL GCD): <10.000 µg/mL
- Quantity of Fulvestrant Diluted Run 2 (200 mg/mL GCD): <10.000 µg/mL
- True Fulvestrant Concentration (200 mg/mL HPBCD in ddH2O, 22° C., 24 h): 1.563 mg/mL
- Average Concentration (200 mg/mL HPBCD): 99.30 µg/mL
- Quantity of Fulvestrant Diluted Run 1 (200 mg/mL HPBCD): 156.30 µg/mL
- Quantity of Fulvestrant Diluted Run 2 (200 mg/mL HPBCD): 42.30 µg/mL
- True Fulvestrant Concentration (200 mg/mL HPGCD in ddH2O, 22° C., 24 h): 0.300 mg/mL
- Average Concentration (200 mg/mL HPGCD): 334.71 µg/mL
- Quantity of Fulvestrant Diluted Run 1 (200 mg/mL HPGCD): 334.75 µg/mL
- Quantity of Fulvestrant Diluted Run 2 (200 mg/mL HPGCD): 334.66 µg/mL
- True Fulvestrant Concentration (200 mg/mL MBCD in ddH2O, 22° C., 24 h): 10.694 mg/mL
- Average Concentration (200 mg/mL MBCD): 106.94 µg/mL
- Quantity of Fulvestrant Diluted Run 1 (200 mg/mL MBCD): 106.87 µg/mL
- Quantity of Fulvestrant Diluted Run 2 (200 mg/mL MBCD): 107.01 µg/mL
- True Fulvestrant Concentration (200 mg/mL SBEBCD in ddH2O, 22° C., 24 h): 0.399 mg/mL
- Average Concentration (200 mg/mL SBEBCD): 398.81 µg/mL
- Quantity of Fulvestrant Diluted Run 1 (200 mg/mL SBEBCD): 398.52 µg/mL
- Quantity of Fulvestrant Diluted Run 2 (200 mg/mL SBEBCD): 399.09 µg/mL
- True Fulvestrant Concentration (250 mg/mL HPBCD in ddH2O, 22° C., 24 h): 2.377 mg/mL
- Average Concentration (250 mg/mL HPBCD): 118.84 µg/mL
- Quantity of Fulvestrant Diluted Run 1 (250 mg/mL HPBCD): 118.71 µg/mL
- Quantity of Fulvestrant Diluted Run 2 (250 mg/mL HPBCD): 118.97 µg/mL
- True Fulvestrant Concentration (250 mg/mL HPGCD in ddH2O, 22° C., 24 h): 0.215 mg/mL
- Average Concentration (250 mg/mL HPGCD): 473.84 µg/mL
- Quantity of Fulvestrant Diluted Run 1 (250 mg/mL HPGCD): 474.68 µg/mL
- Quantity of Fulvestrant Diluted Run 2 (250 mg/mL HPGCD): 472.99 µg/mL
- True Fulvestrant Concentration (250 mg/mL MBCD in ddH2O, 22° C., 24 h): 17.429 mg/mL
- Average Concentration (250 mg/mL MBCD): 174.29 µg/mL
- Quantity of Fulvestrant Diluted Run 1 (250 mg/mL MBCD): 174.30 µg/mL
- Quantity of Fulvestrant Diluted Run 2 (250 mg/mL MBCD): 174.28 µg/mL
- True Fulvestrant Concentration (250 mg/mL SBEBCD in ddH2O, 22° C., 24 h): 0.609 mg/mL
- Average Concentration (250 mg/mL SBEBCD): 304.74 µg/mL
- Quantity of Fulvestrant Diluted Run 1 (250 mg/mL SBEBCD): 304.32 µg/mL
- Quantity of Fulvestrant Diluted Run 2 (250 mg/mL SBEBCD): 305.15 µg/mL
- True Fulvestrant Concentration (300 mg/mL HPBCD in ddH2O, 22° C., 24 h): 3.312 mg/mL
- Average Concentration (300 mg/mL HPBCD): 165.62 µg/mL
- Quantity of Fulvestrant Diluted Run 1 (300 mg/mL HPBCD): 164.70 µg/mL
- Quantity of Fulvestrant Diluted Run 2 (300 mg/mL HPBCD): 166.54 µg/mL
- True Fulvestrant Concentration (300 mg/mL HPGCD in ddH2O, 22° C., 24 h): 0.603 mg/mL
- Average Concentration (300 mg/mL HPGCD): 392.50 µg/mL
- Quantity of Fulvestrant Diluted Run 1 (300 mg/mL HPGCD): 400.24 µg/mL
- Quantity of Fulvestrant Diluted Run 2 (300 mg/mL HPGCD): 384.76 µg/mL
- True Fulvestrant Concentration (300 mg/mL MBCD in ddH2O, 22° C., 24 h): 22.673 mg/mL
- Average Concentration (300 mg/mL MBCD): 226.73 µg/mL
- Quantity of Fulvestrant Diluted Run 1 (300 mg/mL MBCD): 226.52 µg/mL
- Quantity of Fulvestrant Diluted Run 2 (300 mg/mL MBCD): 226.94 µg/mL
- True Fulvestrant Concentration (300 mg/mL SBEBCD in ddH2O, 22° C., 24 h): 0.852 mg/mL
- Average Concentration (300 mg/mL SBEBCD): 425.89 µg/mL
- Quantity of Fulvestrant Diluted Run 1 (300 mg/mL SBEBCD): 425.82 µg/mL
- Quantity of Fulvestrant Diluted Run 2 (300 mg/mL SBEBCD): 425.96 µg/mL
- True Fulvestrant Concentration (350 mg/mL HPBCD in ddH2O, 22° C., 24 h): 4.305 mg/mL
- Average Concentration (350 mg/mL HPBCD): 215.26 µg/mL
- Quantity of Fulvestrant Diluted Run 1 (350 mg/mL HPBCD): 215.41 µg/mL
- Quantity of Fulvestrant Diluted Run 2 (350 mg/mL HPBCD): 215.10 µg/mL
- True Fulvestrant Concentration (350 mg/mL HPGCD in ddH2O, 22° C., 24 h): 0.802 mg/mL
- Average Concentration (350 mg/mL HPGCD): 502.97 µg/mL
- Quantity of Fulvestrant Diluted Run 1 (350 mg/mL HPGCD): 500.71 µg/mL
- Quantity of Fulvestrant Diluted Run 2 (350 mg/mL HPGCD): 505.22 µg/mL
- True Fulvestrant Concentration (350 mg/mL MBCD in ddH2O, 22° C., 24 h): 29.275 mg/mL
- Average Concentration (350 mg/mL MBCD): 292.75 µg/mL
- Quantity of Fulvestrant Diluted Run 1 (350 mg/mL MBCD): 293.21 µg/mL
- Quantity of Fulvestrant Diluted Run 2 (350 mg/mL MBCD): 292.29 µg/mL
- True Fulvestrant Concentration (350 mg/mL SBEBCD in ddH2O, 22° C., 24 h): 1.140 mg/mL
- Average Concentration (350 mg/mL SBEBCD): 379.96 µg/mL
- Quantity of Fulvestrant Diluted Run 1 (350 mg/mL SBEBCD): 382.24 µg/mL
- Quantity of Fulvestrant Diluted Run 2 (350 mg/mL SBEBCD): 377.67 µg/mL
- True Fulvestrant Concentration (400 mg/mL HPBCD in ddH2O, 22° C., 24 h): 5.473 mg/mL
- Average Concentration (400 mg/mL HPBCD): 273.67 µg/mL
- Quantity of Fulvestrant Diluted Run 1 (400 mg/mL HPBCD): 275.20 µg/mL
- Quantity of Fulvestrant Diluted Run 2 (400 mg/mL HPBCD): 272.14 µg/mL
- True Fulvestrant Concentration (400 mg/mL HPGCD in ddH2O, 22° C., 24 h): 1.061 mg/mL
- Average Concentration (400 mg/mL HPGCD): 468.43 µg/mL
- Quantity of Fulvestrant Diluted Run 1 (400 mg/mL HPGCD): 486.39 µg/mL
- Quantity of Fulvestrant Diluted Run 2 (400 mg/mL HPGCD): 450.47 µg/mL
- True Fulvestrant Concentration (400 mg/mL MBCD in ddH2O, 22° C., 24 h): 35.892 mg/mL
- Average Concentration (400 mg/mL MBCD): 358.92 µg/mL
- Quantity of Fulvestrant Diluted Run 1 (400 mg/mL MBCD): 359.13 µg/mL
- Quantity of Fulvestrant Diluted Run 2 (400 mg/mL MBCD): 358.71 µg/mL
- True Fulvestrant Concentration (400 mg/mL SBEBCD in ddH2O, 22° C., 24 h): 1.507 mg/mL
- Average Concentration (400 mg/mL SBEBCD): 502.17 µg/mL
- Quantity of Fulvestrant Diluted Run 1 (400 mg/mL SBEBCD): 503.13 µg/mL
- Quantity of Fulvestrant Diluted Run 2 (400 mg/mL SBEBCD): 501.21 µg/mL
- solubility at 24 h (aqueous cyclodextrin solution, aqueous with cosolvent or surfactant or cyclodextrin, thermodynamic from solid, enhancement with ACD, SBEBCD and HPGCD, read-out: fulvestrant aqueous solubilities): 1000 to 2000 µg/mL
- solubility at 24 h (aqueous cyclodextrin solution, aqueous with cosolvent or surfactant or cyclodextrin, thermodynamic from solid, in 400 mg/mL HPBCD, read-out: aqueous solubility of fulvestrant): 5500 µg/mL (≈ 9.06 mM)
- solubility at 24 h (aqueous cyclodextrin solution, aqueous with cosolvent or surfactant or cyclodextrin, thermodynamic from solid, in 400 mg/mL MBCD, read-out: fulvestrant aqueous solubility): 35900 µg/mL (≈ 59.2 mM)
- solubility thermodynamic at 24 h (water (ddH2O) without cyclodextrin, water, thermodynamic from solid, 0 mg/mL SBEBCD in ddH2O, 22° C., 24 h, read-out: True Fulvestrant Concentration): < 10 µg/mL
- solubility at 24 h (water (ddH2O), water, thermodynamic from solid, absence of cyclodextrin, read-out: aqueous solubility of fulvestrant): < 10 µg/mL
Structure (SMILES): C[C@]12CC[C@@H]3c4ccc(O)cc4C[C@@H](CCCCCCCCC[S+]([O-])CCCC(F)(F)C(F)(F)F)[C@H]3[C@@H]1CC[C@@H]2O (stereo partly drawn) [Fulvestrant, 7-alpha-[9-(4,4,5,5,5-pentafluoropentylsulphinyl)nonyl]estra-1,3,5-(10)-triene-3,17-beta-diol]

Source: patent publication US9724355B2, “Fulvestrant compositions and methods of use” (SHIMODA BIOTECH (PTY) LTD, priority 2010, dated 2017)
